Reference: BindingDB's records for doi:10.1016/j.ejmech.2014.08.060 (European Molecular Biology Laboratory, 2014)
pIC50: −log10 of the molar value.

How the values were obtained:
[1] = biological target: T1, Protein tyrosine phosphatase type IVA 1 (Homo sapiens, UniProt Q93096); assay: Inhibition of PRL1 (unknown origin) using DiFMUP as fluorogenic phosphate substrate assessed as DiFMUP dephosphorylation
T1 sequence (Q93096 whole entry): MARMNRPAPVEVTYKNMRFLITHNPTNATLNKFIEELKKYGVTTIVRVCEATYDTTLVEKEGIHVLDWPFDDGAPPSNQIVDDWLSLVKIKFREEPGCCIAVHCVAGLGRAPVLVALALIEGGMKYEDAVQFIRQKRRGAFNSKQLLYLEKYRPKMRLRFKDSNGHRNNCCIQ

[2] = biological target: T2, Protein tyrosine phosphatase type IVA 2 (Homo sapiens, UniProt Q12974); assay: Inhibition of PRL2 (unknown origin) using DiFMUP as fluorogenic phosphate substrate assessed as DiFMUP dephosphorylation
T2 sequence (Q12974 whole entry): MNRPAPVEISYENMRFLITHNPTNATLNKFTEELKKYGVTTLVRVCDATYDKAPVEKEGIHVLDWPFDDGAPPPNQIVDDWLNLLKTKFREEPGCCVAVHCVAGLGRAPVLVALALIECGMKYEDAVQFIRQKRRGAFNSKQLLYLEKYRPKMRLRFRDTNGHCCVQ

[3] = biological target: Protein tyrosine phosphatase type IVA 3 (Homo sapiens, UniProt O75365); assay: Inhibition of PRL3 (unknown origin) using DiFMUP as fluorogenic phosphate substrate assessed as DiFMUP dephosphorylation
Sequence of Protein tyrosine phosphatase type IVA 3 (O75365 whole entry): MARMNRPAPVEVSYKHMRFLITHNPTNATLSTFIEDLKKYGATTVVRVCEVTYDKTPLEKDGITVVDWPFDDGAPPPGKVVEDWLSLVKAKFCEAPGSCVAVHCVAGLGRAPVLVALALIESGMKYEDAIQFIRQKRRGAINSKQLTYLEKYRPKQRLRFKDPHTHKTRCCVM

With O=C1CSC(=S)N1 [CHEBI:8830] the pIC50 [1] was 4.46 and the pIC50 [2] was 3.73.
Compound O=C(O)c1ccc[n+]2c([O-])c(-c3ccccc3)sc12 has a pIC50 [1] of 3.68, a pIC50 [2] of 3.73 and a pIC50 [3] of 3.99.
